“Also recorded” adds a separate entry of the source.
Assays:
human melanoma cells = type: cell-based
[1] = system: human colon carcinoma HT-29 cells; type: cell-based

C=C(C=O)C[C@@H]1C[C@H](O)[C@]2(C)O[C@@H]3C[C@@H]4O[C@@H]5C[C@]6(C)O[C@]7(C)CC[C@@H]8O[C@@H]9C[C@]%10(C)O[C@@H]%11C(C)=CC(=O)O[C@H]%11C[C@H]%10O[C@H]9C[C@@H](C)[C@H]8O[C@H]7C[C@H]6O[C@H]5C/C=C\[C@H]4O[C@H]3C[C@H]2O1 [brevetoxin]
response in the presence of ouabain and veratridine (human melanoma cells): does not respond; also recorded: lack of response | response in the presence of ouabain and veratridine [1]: lack of response

From patent US5858687A (priority 1995, dated 1999)
